In patent US10035800B2 (AbbVie Inc., priority 2013, dated 2018) one finds Ki and EC50 data, which are given here for 19 compounds.

Molecules are shown by their SMILES. pEC50, pKi: −log10 of the molar value.

Assay [1] concerns the target T1, BRD4 (BDII_E352-M457) (Homo sapiens, UniProt O60885).
T1 construct: protocol; made in house
In words: TR-FRET bromodomain binding assay, second bromodomain of BRD4. The conditions noted are these: TR-FRET assay protocol G (compound 0.92 μM-15 pM); 30 nM probe. An outline of the steps:
(§1)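 Ki values derive from IC50s using probe Kd and concentration, with IC50s fitted to normalized TR-FRET ratios (Ex 340/Em 495, 520). Compounds competed against an Alexa647-labelled BET-inhibitor (100 nM BDI, 30 nM BDII) for 8 nM His-tagged bromodomain bound by Eu-anti-His antibody, 1 h, room temperature, pH 6.0.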

Assay [2] has as its system breast cancer cell line MX-1. The experiment in a line: MX-1 cell line proliferation assay. Format: cell-based. To be noted: MX-1 cells, 3-day proliferation assay, Cell Titer Glo; read-out: Cellular proliferation: EC50. An outline of the steps:
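EC50 comes from sigmoidal fits of Cell Titer Glo luminescence relative to DMSO controls, with assay MSR 2.1. Ten-point 3-fold dilutions (top 3 or 1 μM final) were added to MX-1 breast cancer cells after overnight adhesion. Cells were at 5000/well and proliferation ran 3 days.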

Assay [3] concerns the target T2, BRD4 (BDI_K57-E168) (Homo sapiens, UniProt O60885).
T2 construct: BD1: amino acids K57-E168; made in house
In words: TR-FRET bromodomain binding assay, first bromodomain of BRD4. To be noted: TR-FRET assay protocol G (compound 0.92 μM-15 pM); 100 nM probe. An outline of the steps:
as §1

On to `Cn1cc2c3c(c[nH]c3c1=O)C(CCC(=O)NC1CCOCC1)N(c1ccc(F)cc1F)c1ccc(CS(C)(=O)=O)cc1-2` (stereo not drawn) [Example 121, 3-(4-(2,4-difluorophenyl)-10-methyl-7-((methylsulfonyl)methyl)-11-oxo-3,4,10,11-tetrahydro-1H-1,4,10-triazadibenzo[cd,f]azulen-3-yl)-N-(tetrahydro-2H-pyran-4-yl)propanamide], for which the negative logarithm of the Ki (pKi) in assay [1] is 9.10; in assay [3], 8.18. Besides, the pEC50 in assay [2] was less than 6.00.
The corresponding values for `CN(NC(=O)CCC1c2c[nH]c3c(=O)n(C)cc(c23)-c2cc(CS(C)(=O)=O)ccc2N1c1ccc(F)cc1F)c1ccccc1` (stereo not drawn) [Example 122, 3-(4-(2,4-difluorophenyl)-10-methyl-7-((methylsulfonyl)methyl)-11-oxo-3,4,10,11-tetrahydro-1H-1,4,10-triazadibenzo[cd,f]azulen-3-yl)-N′-methyl-N′-phenylpropanehydrazide] are 9.04, 7.97 and less than 6.00.
The corresponding values for `Cn1cc2c3c(c[nH]c3c1=O)C(CCC(=O)NCc1ccccc1)N(c1ccc(F)cc1F)c1ccc(CS(C)(=O)=O)cc1-2` (stereo not drawn) [Example 123, N-benzyl-3-(4-(2,4-difluorophenyl)-10-methyl-7-((methylsulfonyl)methyl)-11-oxo-3,4,10,11-tetrahydro-1H-1,4,10-triazadibenzo[cd,f]azulen-3-yl)propanamide] are 9.01, 8.00 and less than 6.00.
Turning to `Cn1cc2c3c(c[nH]c3c1=O)C(CCC(=O)NC1CCS(=O)(=O)C1)N(c1ccc(F)cc1F)c1ccc(CS(C)(=O)=O)cc1-2` (stereo not drawn) [Example 124, 3-(4-(2,4-difluorophenyl)-10-methyl-7-((methylsulfonyl)methyl)-11-oxo-3,4,10,11-tetrahydro-1H-1,4,10-triazadibenzo[cd,f]azulen-3-yl)-N-(1,1-dioxidotetrahydrothiophen-3-yl)propanamide], the pKi was 8.56 in assay [1] and 8.05 in assay [3]. For the same compound, the pEC50 in assay [2] is 6.03.
The corresponding values for `Cn1cc2c3c(c[nH]c3c1=O)C(CCC(=O)N1CCN(C(=O)OC(C)(C)C)CC1)N(c1ccc(F)cc1F)c1ccc(CS(C)(=O)=O)cc1-2` (stereo not drawn) [Example 125, tert-butyl 4-(3-(4-(2,4-difluorophenyl)-10-methyl-7-((methylsulfonyl)methyl)-11-oxo-3,4,10,11-tetrahydro-1H-1,4,10-triazadibenzo[cd,f]azulen-3-yl)propanoyl)piperazine-1-carboxylate] are 8.63, 8.03 and 6.47.
On to `CCNC(=O)c1[nH]c2c(=O)n(C)cc3c2c1CN(c1ccc(Cl)cc1)c1ccccc1-3` [Example 127, 4-(4-chlorophenyl)-N-ethyl-10-methyl-11-oxo-3,4,10,11-tetrahydro-1H-1,4,10-triazadibenzo[cd,f]azulene-2-carboxamide], for which the results for the negative logarithm of the Ki (pKi) in assay [1] and in assay [3] were 8.87 and 8.57, respectively. Besides, the pEC50 in assay [2] was 7.38.
Consider `CC(=O)OCCCCCCC1c2c[nH]c3c(=O)n(C)cc(c23)-c2cc(CS(C)(=O)=O)ccc2N1c1ccc(F)cc1F` (stereo not drawn) [Example 128, 6-(4-(2,4-difluorophenyl)-10-methyl-7-((methylsulfonyl)methyl)-11-oxo-3,4,10,11-tetrahydro-1H-1,4,10-triazadibenzo[cd,f]azulen-3-yl)hexyl acetate], for which the pKi in assay [1] is 8.70; in assay [3] it was 7.54. Further, the pEC50 in assay [2] was 7.14.
For the compound `Cn1cc2c3c(c[nH]c3c1=O)C(CN)N(c1ccc(F)cc1F)c1ccc(CS(C)(=O)=O)cc1-2` (stereo not drawn) [Example 129, 3-(aminomethyl)-4-(2,4-difluorophenyl)-10-methyl-7-((methylsulfonyl)methyl)-3,4-dihydro-1H-1,4,10-triazadibenzo[cd,f]azulen-11(10H)-one], the negative logarithm of the Ki (pKi) in assay [1] is 8.60; in assay [3] it was 7.79. In addition, the pEC50 in assay [2] is 6.60.
`Cn1cc2c3c(c[nH]c3c1=O)C(CCC(=O)N1CCNCC1)N(c1ccc(F)cc1F)c1ccc(CS(C)(=O)=O)cc1-2` (stereo not drawn) [Example 131, 4-(2,4-difluorophenyl)-10-methyl-7-((methylsulfonyl)methyl)-3-(3-oxo-3-(piperazin-1-yl)propyl)-3,4-dihydro-1H-1,4,10-triazadibenzo[cd,f]azulen-11(10H)-one]: the pKi was 8.63 in assay [1] and 7.97 in assay [3]. The pEC50 in assay [2] is less than 6.00.
As to `Cn1cc2c3c(c[nH]c3c1=O)C(CCC(=O)NC1CCNCC1)N(c1ccc(F)cc1F)c1ccc(CS(C)(=O)=O)cc1-2` (stereo not drawn) [Example 132, 3-(4-(2,4-difluorophenyl)-10-methyl-7-((methylsulfonyl)methyl)-11-oxo-3,4,10,11-tetrahydro-1H-1,4,10-triazadibenzo[cd,f]azulen-3-yl)-N-(piperidin-4-yl)propanamide], the pKi is 8.50 in assay [1] and 7.95 in assay [3]. Further, in assay [2], the pEC50 was less than 6.00.
The corresponding values for `CC(=O)OCC(CCC1c2c[nH]c3c(=O)n(C)cc(c23)-c2cc(CS(C)(=O)=O)ccc2N1c1ccc(F)cc1F)OC(C)=O` (stereo not drawn) [Example 133, 4-(4-(2,4-difluorophenyl)-10-methyl-7-((methylsulfonyl)methyl)-11-oxo-3,4,10,11-tetrahydro-1H-1,4,10-triazadibenzo[cd,f]azulen-3-yl)butane-1,2-diyl diacetate] are 8.85, 8.03 and 6.69.
The matching figures for `COC(=O)CCCCC1c2c[nH]c3c(=O)n(C)cc(c23)-c2cc(CS(C)(=O)=O)ccc2N1c1ccc(F)cc1F` (stereo not drawn) [Example 134, methyl 5-(4-(2,4-difluorophenyl)-10-methyl-7-((methylsulfonyl)methyl)-11-oxo-3,4,10,11-tetrahydro-1H-1,4,10-triazadibenzo[cd,f]azulen-3-yl)pentanoate]: 8.95, 7.84 and 6.74.
For the compound `Cn1cc2c3c(c[nH]c3c1=O)C(CNC(=O)CNC(=O)OC(C)(C)C)N(c1ccc(F)cc1F)c1ccc(CS(C)(=O)=O)cc1-2` (stereo not drawn) [Example 135, tert-butyl (2-(((4-(2,4-difluorophenyl)-10-methyl-7-((methylsulfonyl)methyl)-11-oxo-3,4,10,11-tetrahydro-1H-1,4,10-triazadibenzo[cd,f]azulen-3-yl)methyl)amino)-2-oxoethyl)carbamate], the results for the pKi in assay [1] and in assay [3] were 8.67 and 7.94, respectively. Moreover, the pEC50 in assay [2] is 6.29.
The corresponding values for `Cn1cc2c3c(c[nH]c3c1=O)C(CCCCCCO)N(c1ccc(F)cc1F)c1ccc(CS(C)(=O)=O)cc1-2` (stereo not drawn) [Example 136, 4-(2,4-difluorophenyl)-3-(6-hydroxyhexyl)-10-methyl-7-((methylsulfonyl)methyl)-3,4-dihydro-1H-1,4,10-triazadibenzo[cd,f]azulen-11(10H)-one] are 8.88, 7.88 and 7.31.
The corresponding values for `Cn1cc2c3c(c[nH]c3c1=O)C(CNC(=O)c1ccccc1)N(c1ccc(F)cc1F)c1ccc(CS(C)(=O)=O)cc1-2` (stereo not drawn) [Example 137, N-((4-(2,4-difluorophenyl)-10-methyl-7-((methylsulfonyl)methyl)-11-oxo-3,4,10,11-tetrahydro-1H-1,4,10-triazadibenzo[cd,f]azulen-3-yl)methyl)benzamide] are 8.41, 7.29 and 6.62.
The matching figures for `Cn1cc2c3c(c[nH]c3c1=O)C(CNC(=O)CN)N(c1ccc(F)cc1F)c1ccc(CS(C)(=O)=O)cc1-2` (stereo not drawn) [Example 139, 2-amino-N-((4-(2,4-difluorophenyl)-10-methyl-7-((methylsulfonyl)methyl)-11-oxo-3,4,10,11-tetrahydro-1H-1,4,10-triazadibenzo[cd,f]azulen-3-yl)methyl)acetamide]: 8.63, 7.76 and 6.20.
Consider `Cn1cc2c3c(c[nH]c3c1=O)C(CCC(O)CO)N(c1ccc(F)cc1F)c1ccc(CS(C)(=O)=O)cc1-2` (stereo not drawn) [Example 140, 4-(2,4-difluorophenyl)-3-(3,4-dihydroxybutyl)-10-methyl-7-((methylsulfonyl)methyl)-3,4-dihydro-1H-1,4,10-triazadibenzo[cd,f]azulen-11(10H)-one], for which the figures for the pKi in assay [1] and in assay [3] were 8.65 and 8.00, respectively. Moreover, the pEC50 in assay [2] is 6.03.
Turning to `Cn1cc2c3c(c[nH]c3c1=O)C(CCCO)N(c1ccc(F)cc1F)c1ccc(CS(C)(=O)=O)cc1-2` (stereo not drawn) [Example 142, 4-(2,4-difluorophenyl)-3-(3-hydroxypropyl)-10-methyl-7-((methylsulfonyl)methyl)-3,4-dihydro-1H-1,4,10-triazadibenzo[cd,f]azulen-11(10H)-one], the pKi in assay [1] is 9.22; in assay [3], 8.06. Besides, the pEC50 in assay [2] is 7.29.
In the case of `Cn1cc2c3c(c[nH]c3c1=O)C(CCCOc1ccccc1)N(c1ccc(F)cc1F)c1ccc(CS(C)(=O)=O)cc1-2` (stereo not drawn) [Example 143, 4-(2,4-difluorophenyl)-10-methyl-7-((methylsulfonyl)methyl)-3-(3-phenoxypropyl)-3,4-dihydro-1H-1,4,10-triazadibenzo[cd,f]azulen-11(10H)-one], the pKi in assay [1] was 8.51; in assay [3] it was 7.26. Moreover, the pEC50 in assay [2] is 6.76.
